Results: publication PMC4279419, “Angiostatic, tumor inflammatory and anti-tumor effects of CXCL4^47–70 and CXCL4L1^47–70 in an EGF-dependent breast cancer model” (Oncotarget, 2014)
Where no end group is shown, it is not given here.

Columns and labels:
[1] = system: human retinal microvascular endothelial cells (HMVEC); assay: HMVEC MTT proliferation assay; type: cell-based; conditions: control PI=1, 3 to 4 days, MTT, mean ± s.e.m.; for Proliferation index (PI), baseline (single stimulus): no growth factor
Experimental: (§1) First, HMVEC and HLEC were seeded at 5 × 10^3 cells/well in EBM-2 + 1% FCS in a 96-well plate, whereas MDA-MB-231 were starved of growth factors overnight by replacing their growth medium with DMEM (serum-free) prior to seeding the tumor cells at 15 × 10^2 cells/well in DMEM + 1% FCS. As for the rest of the assay, the same protocol applies to all cells. Once adherent, cells were incubated with different concentrations of the peptides CXCL4^47–70 and CXCL4L1^47–70 as single stimuli or in combination with recombinant human EGF (3 ng/ml; R&D Systems, Minneapolis, MN) at 37°C/5% CO2. All conditions were tested in triplicate or quadruplicate. After 3 to 4 days, stimulation medium was removed and a sterile MTT solution was added [0.04 g/100 ml thiazolyl blue (Sigma-Aldrich, St. Louis, MO) in 20% PBS/80% RPMI without phenol red (Lonza)] for 3 to 4 hours. The formed formasan crystals were dissolved by replacing the MTT solution with acidic propanol (0.04 M HCl, 0.1% (v/v) Nondet P-40 in absolute isopropanol) and shaking the plate, shielded from light, for 10 minutes. Optical density (OD) was determined at 570 nm and 630 nm. The obtained ODs were processed to proliferation indexes (PI), expressed relative to appropriate buffer controls, i.e. ΔOD570–630X over ΔOD570–630CO.

[2] = system: human dermal lymphatic microvascular endothelial cells (HLEC); assay: HLEC MTT proliferation assay; type: cell-based; conditions: control PI=1, 3 to 4 days, MTT, mean ± s.e.m., n=4
Experimental: as §1

[3] = system: CD31-positive vessels of MDA-MB-231 tumors; assay: CD31 immunohistochemistry of resected tumors (vascularization); type: in vivo, mice; conditions: 2.5 μg intratumoral 3×/week; data not shown
Experimental: The impact of peptide treatment on the tumor vasculature was evaluated by quantification of immunohistochemically stained CD31-positive vessels. […] This inconsistency between our observations in vitro and in vivo evokes the question which alternative mechanisms may contribute to the anti-tumoral impact of peptide treatment as evidenced in the MDA-MB-231 tumor model.

CXCR3A = assay: Calcium signaling in CXCR3A-transfectants; type: cell-based; conditions: CHO/CXCR3A, one representative experiment out of three; for calcium signal via CXCR3A: 2 μg/ml, fura 2, spectrofluorometer; for inhibition of CXCL10-induced calcium signaling (desensitization): peptide 2 μg/ml, CXCL10 5 ng/ml added 100 s later, fura 2
Excerpt: We further tried to reveal the mode of action of CXCL4^47–70 and CXCL4L1^47–70. First, we excluded that either peptide still binds/activates one of the CXCR3 isoforms, the receptors for intact CXCL4 and CXCL4L1. […]
inhibit signaling by intact CXCL10. To study interaction of CXCL447–70 and CXCL4L147–70 with CXCR3A, CHO cells stably transfected with CXCR3A were loaded with the fluorescent dye fura 2 (Struyf et al. J. Immunol. 2009, 182:666). Changes in the intracellular Ca2+ concentrations ([Ca2+]i) in response to CXCL447–70 or CXCL4L147–70 treatment were monitored using a spectrofluorometer. The line in the spectra indicates the fluorescence intensity ratio (i.e. the fluorescence intensity measured after excitation at 340 nm divided by the fluorescence intensity measured after excitation at 380 nm). The results shown (one representative experiment out of three) illustrate a desensitization experiment, in which CHO/CXCR3A cells were stimulated first with a peptide (2 µg/ml) and 100 s later with intact CXCL10 […]
peptides induced a rise in [Ca2+]i. When the cells were stimulated with 5 ng/ml intact CXCL10 100 s after peptide treatment, the response […]
interact with CXCR3A. Arrows indicate the time of addition of the stimulus.
(also on this page, place not known: www.impactjournals.com/oncotarget/ Oncotarget, Supplementary Materials 2014 CXCL4 47–70 CXCL4L1 47–70 CXCL4 47–70 CXCL4L1 47–70 CXCL4 47–70) […]

[4] = system: human acute monocytic leukemia cells (THP-1); assay: Transendothelial multiscreen chemotaxis assay; type: cell-based; conditions: HMVEC monolayer, n=3 to 4; for effect on CCL5-induced transendothelial migration: peptide 1000 to 5000 ng/ml + CCL5 20 ng/ml, 3 to 5 hours, 37°C, ATPlite
Experimental: Monocyte chemotaxis assays were performed on 5 μm hydrophilic polycarbonate multiscreen-MIC plates (Millipore) using the human acute monocytic leukemia cells (THP-1). To promote efficient synergy between CCL5 on one hand and CXCL4, CXCL4^47–70 or CXCL4L1^47–70 on the other hand, the upper compartment of these plates was coated with a HMVEC monolayer. HMVEC were seeded on a 0.1% gelatin layer 24 hours prior to the chemotaxis assay. The following day, dilutions of recombinant human CCL5 (PeproTech, Rocky Hill, CT), natural human CXCL4 (isolated from stimulated platelets as previously described), recombinant human CXCL4L1 (isolated from baculovirus-infected Sf9 cells as previously described), synthetic CXCL4^47–70, synthetic CXCL4L1^47–70 (both produced as described above), or combinations thereof were added to the lower compartment of the plate, in a volume of 150 μl. After removal of the HMVEC medium, 0.35 × 10^6 THP-1 cells were added to the upper wells, resuspended in phenol red-free RPMI + 0.1 g/100 ml BSA (endotoxin-free BSA; Sigma CatN° A8806) after centrifugation of the cells at 200g for 10 min. Plates were incubated at 37°C for 3 to 5 hours before quantifying the amount of cells that migrated towards the chemokine concentrations. For that purpose, we used the ATPlite kit (PerkinElmer, Waltham, MA) allowing quantitative luminescent detection of ATP, which is representative of THP-1 cell counts in the lower wells. This reaction was performed in a view white 96-well plate (PerkinElmer). A chemotactic index (CI) was calculated, defined as the ratio of luminescence after chemokine treatment and luminescence after control treatment.

[5] = peptide 0.3 μg/ml + EGF 3 ng/ml, n=7, p=0.015 (CXCL4^47–70), p=0.041 (CXCL4L1^47–70) versus EGF
[6] = peptide 1 μg/ml + EGF 3 ng/ml, n=7, p=0.003 (CXCL4^47–70), p=0.015 (CXCL4L1^47–70) versus EGF
[7] = peptide 1 μg/ml, n=8, p=0.011 (CXCL4^47–70), p=0.043 (CXCL4L1^47–70)
[8] = peptide 3 μg/ml + EGF 3 ng/ml, n=6, p=0.008 (CXCL4^47–70), n=7, p=0.041 (CXCL4L1^47–70) versus EGF
[9] = peptide 3 μg/ml, n=6, p=0.001 (CXCL4^47–70), n=7, p=0.009 (CXCL4L1^47–70)
[10] = peptide 0.3 μg/ml, p=0.030 (CXCL4^47–70), p=0.312 (CXCL4L1^47–70)

Substance | Proliferation index (PI), EGF-stimulated [1, 5] | Proliferation index (PI), EGF-stimulated [1, 6] | Proliferation index (PI), baseline (single stimulus) [1, 7] | Proliferation index (PI), EGF-stimulated [1, 8] | Proliferation index (PI), baseline (single stimulus) [1, 9] | Proliferation index (PI), baseline [2, 10] | Proliferation index (PI), baseline ([2]; peptide 1 μg/ml, p=0.030) | Proliferation index (PI), baseline ([2]; peptide 3 μg/ml, p=0.030) | vascularization of resected tumors (CD31-positive vessels) [3] | calcium signal via CXCR3A (CXCR3A) | calcium signal via CXCR3A (CXCR3A; listed as CXCL447–70) | inhibition of CXCL10-induced calcium signaling (desensitization) (CXCR3A) | inhibition of CXCL10-induced calcium signaling (desensitization) (CXCR3A; listed as CXCL447–70) | effect on CCL5-induced transendothelial migration [4] | stimulation of monocytic cell chemotaxis compared to CXCL4L1^47–70 ([4]; peptide 1000 to 5000 ng/ml with CCL5 20 ng/ml) | calcium signal via CXCR3A (CXCR3A; listed as CXCL4L147–70) | inhibition of CXCL10-induced calcium signaling (desensitization) (CXCR3A; listed as CXCL4L147–70)
CXCL4^47–70: synthetic human carboxy-terminal peptide restricted to the last 24 amino acids of CXCL4, Fmoc chemistry (NGRKICLDLQAPLYKKIIKKLLES; not fully specified (N-terminus)) | 1.13 ± 0.07 | 0.96 ± 0.06 | 0.77 ± 0.08 | 0.93 ± 0.07 | 0.59 ± 0.09 | 0.70 ± 0.06 | 0.69 ± 0.06 | 0.37 ± 0.04 | neither CXCL4^47–70, nor CXCL4L1^47–70 was reflected by a reduced vascularization | Nor could we detect any calcium signal | do not induce calcium signaling via CXCR3A | neither peptide (2 μg/ml) was capable of inhibiting calcium signaling | equal to the signal obtained after buffer stimulation | enhanced transendothelial migration of monocytic cells | more efficiently stimulated monocytic cell chemotaxis compared to CXCL4L1^47–70 | – | –
CXCL4L1^47–70: synthetic human carboxy-terminal peptide restricted to the last 24 amino acids of CXCL4L1, Fmoc chemistry | 1.17 ± 0.06 | 1.05 ± 0.07 | 0.86 ± 0.12 | 0.98 ± 0.13 | 0.70 ± 0.09 | 0.90 ± 0.05 | 0.82 ± 0.05 | 0.66 ± 0.04 | neither CXCL4^47–70, nor CXCL4L1^47–70 was reflected by a reduced vascularization | Nor could we detect any calcium signal | – | neither peptide (2 μg/ml) was capable of inhibiting calcium signaling | – | enhanced transendothelial migration of monocytic cells | – | do not induce calcium signaling via CXCR3A | equal to the signal obtained after buffer stimulation
